In one assay the test system is human cancer cell lines. As to conditions: cited from earlier work; for bio-activity of cyclic peptide (active / inactive): PRGPRP warhead combined with non-amphiphilic backbone.
Assay [1] relates to NCI H460 Human Non-small cell lung cancer. Description: Light microscopy of treated cell cultures. It is filed as cell-based. As to conditions: versus DMSO control. On the procedure: To investigate further the mechanism of action of the anionic warhead, cultures of NCI H460 Human Non-small cell lung cancer were exposed to HILR-025 and HILR-D-07 and observed using light microscopy. A comparative cell culture was treated with DMSO to provide a negative control.

The test system of assay [2] is NCI-H460 human non-small-cell lung cancer cells. Put plainly: Cell survival with or without 2-deoxyglucose, alamarBlue. It is filed as cell-based. As to conditions: combination with 3.125 mmol 2-DOG versus alone. From the text:
Since the compounds according to the invention appeared to be causing cell death by necrosis as a result of NAD/ATP depletion, it was hypothesised that their activity could be potentiated by administering the compounds with a glycolysis inhibitor. The cell killing ability of HILR-025 (SEQ ID NO: 15) and HILR-D-07 sodium salt (SEQ ID NO: 30) in the presence and absence of the glycolysis inhibitor 2-deoxyglucose (2-DOG) was therefore assayed.
NCI-H460 human non-small-cell lung cancer cells were contacted with HILR-025 or HILR-D-07 alone or in combination with 3.125 mmol 2-DOG and cell survival was determined using AlamaBlue® cell viability reagent (Life Technologies, Inc.) in accordance with the manufacturer's instructions.

In assay [3] the test system is NCI-H460 cells. Conditions: 96 h.
Description: Methods measuring cell viability include the use of alamarBlue® cell viability reagent (Life Technologies, Inc.) (resazurin) with fluorescence detection.
1) NCI-H460 cells were grown in Ham's F12 media supplemented with 10% FBS. 2) Cells were harvested and seeded into 96-well plates at 500 cells/well. 3) Compounds were made up from stock solutions and added directly to cells in doubling dilutions starting at 200 μM. Final DMSO concentration was 0.2%. 4) Cells were grown with compound for 96 hours at 37° C. 5% CO2 in a humidified atmosphere. 5) A resazurin dye composition (AlamarBlue® cell viability reagent (Life Technologies, Inc.)) 10% (v/v) was then added and incubated for a further 4 hours, and fluorescent product detected using the BMG FLUOstar plate reader. 6) Media only background readings were subtracted before data were analysed using a 4-parameter logistic equation in GraphPad Prism.
Assay [4] concerns Lactate Dehydrogenase A [LDHA]. Put plainly: LDH activity assay on lysates of treated NCI-H460 cells (Abcam ab102526). It is filed as cell-based, human. Conditions: NCI-H460 cells treated 24 h or 96 h, normalised to protein; read-out: IC50 for inhibiting the activity of LDH. On the procedure:
An LDH activity assay was conducted on samples derived from NCI-H460 cells treated with 2 test compounds (HILR-025 and HILR-030) for either 24h or 96h. […] Therefore a BCA assay was conducted to estimate the total amount of protein present in each LDH assay lysate and this was used to normalise the enzyme activity data. As an indication of cell viability, an Alamar blue assay was also carried out at both timepoints, to serve as an additional point of reference.
2) Cells were harvested and seeded into 96-well plates at either 500 cells/well (for the 96h timepoint) or 5000 cells/well for the 24h timepoint. […] 6) At the end of the assay (24 or 96h), Alamar blue 10% (v/v) was added to one set of plates, incubated for a further 4 hours, and fluorescent product detected using the BMG FLUOstar plate reader. […] 10) LDH activity was measured in the cleared lysates using an LDH activity kit (Abcam, ab102526). 11) After preparation of the LDH activity assay reactions, according to the manufacturer's instructions, absorbance at 450 nm was measured at the initial time to determine (A450)initial 12) Further absorbance readings were taken at 3 minute intervals for up to 15 minutes. […] 16) The LDH activity of each sample was determined by the following equation:
[formula] […] Protein content in remaining cleared lysates was determined using a BCA assay (ThermoScientific). • b. Data were analysed using GraphPad Prism. […]

For assay [5], the system named is NCI-H460 human non-small cell lung cancer cells. As to conditions: amphiphilic backbones of different length and composition; cited from earlier work.
For assay [6], the system named is NCI-H460 cells. Put plainly: HILR-001 with or without 30 nM Olaparib on NCI-H460, alamarBlue and CellTiter-Glo time course. It is filed as cell-based, human. As to conditions: HILR-001 as single agent, particularly evident at later time points. Here is the method: At each time point cell viability was measured by two assay readouts, alamarBlue® and CellTiter-Glo. Conversion of alamarBlue® to a fluorescent product serves as a readout of the metabolic activity of cells, whereas CellTiter-Glo is based on quantification of the ATP present.
2) Cells were harvested and seeded into 96-well plates at 500 cells/well. 3) HILR-001 was made up from a 10 mM stock solution and added directly to cells in doubling dilutions starting at 200 μM. […] The total final DMSO concentration was 0.25%. 4) Cells were grown with compound for 24, 48, 72 or 96 hours at 37° C. 5% CO2 in a humidified atmosphere. 5) AlamarBlue® 10% (v/v) was then added and incubated for a further 4 hours, and fluorescent product detected using the BMG FLUOstar plate reader. 6) On duplicate plates the media was removed from the cells, CellTiter-Glo was diluted in PBS (1:10) and 100 μl added to the cells. 7) Plates were mixed on an orbital shaker for 2 minutes and incubated for a further 10 minutes at room temperature. Luminescent signal was then measured using the BMG FLUOstar plate reader.
In general terms: Resazurin is reduced to fluorescent resorufin, in cell work by metabolically active cells.

pIC50: −log10 of the molar value. Square brackets hold non-standard residues; d marks the D form. Ends that are not written are not given here. Peptide text beside a SMILES is read from it. Phe(4-guanidino) = N=C(N)Nc1ccc(C[C@H](N)C(=O)O)cc1; Abu(4-SO3H) = N[C@@H](CCS(=O)(=O)O)C(=O)O

Turning to “Cyc-[AAGPGGPRGPRPGGPGAA] (cyclic; cyclic peptide; (1)..(18) cyclic peptide) [SEQ ID NO: 9]”, the “bio-activity of cyclic peptide (active / inactive)” value (shortened to “bio-activity … (active / inactive)”) in the assay on human cancer cell lines was “SEQ ID NO: 9: Cyc-[AAGPGGPRGPRPGGPGAA]INACTIVE”.

Turning to Cyc-[PRGPRPvalklalkalal] [THR79], the “selective killing of human cancer cell lines” value (shortened to “selective killing”) in the assay on human cancer cell lines is recorded as “selectively killed a wide range of human cancer cell lines”.

As to “Cyc-[AAAGGGPRGPRPGGGAAA] (cyclic; Cyclic peptide; (1)..(18) cyclic peptide) [SEQ ID NO: 6]”, in the assay with human cancer cell lines, the “bio-activity … (active / inactive)” value was “SEQ ID NO: 6: Cyc-[AAAGGGPRGPRPGGGAAA]INACTIVE”.

As a reminder, the pIC50 is the negative decadic logarithm of the IC50, by convention in mol/L. `CC(C)[C@@H]1NC(=O)[C@@H]2CCCN2C(=O)[C@H](CCCNC(=N)N)NC(=O)[C@@H]2CCCN2C(=O)CNC(=O)[C@H](CCCNC(=N)N)NC(=O)[C@@H]2CCCN2C(=O)[C@H](Cc2c[nH]c3ccccc23)NC(=O)[C@H](Cc2c[nH]c3ccccc23)NC(=O)[C@H](CCCNC(=N)N)NC(=O)[C@H](CCCNC(=N)N)NC(=O)[C@H](Cc2c[nH]c3ccccc23)NC(=O)[C@H](Cc2c[nH]c3ccccc23)NC(=O)[C@H](CCCNC(=N)N)NC(=O)[C@H](CCCNC(=N)N)NC(=O)[C@H](Cc2c[nH]c3ccccc23)NC(=O)[C@H](Cc2c[nH]c3ccccc23)NC1=O` [HILR-025] (cyclo(PRGPRPVWWRRWWRRWW)): the cell morphology entry in assay [1] is reported as “Ring-shaped morphology”. Besides, in assay [2], the “cell killing ability with 2-DOG” value is “enhanced by co-administration with 2-DOG”. The pIC50 in the assay on NCI-H460 cells [3] is 4.82; in assay [4] it was 4.80.

As to `CC(C)[C@@H]1NC(=O)[C@@H]2CCCN2C(=O)[C@H](CCC(=O)O)NC(=O)[C@@H]2CCCN2C(=O)CNC(=O)[C@H](CCC(=O)O)NC(=O)[C@@H]2CCCN2C(=O)[C@H](Cc2c[nH]c3ccccc23)NC(=O)[C@H](Cc2c[nH]c3ccccc23)NC(=O)[C@H](CCCNC(=N)N)NC(=O)[C@H](CCCNC(=N)N)NC(=O)[C@H](Cc2c[nH]c3ccccc23)NC(=O)[C@H](Cc2c[nH]c3ccccc23)NC(=O)[C@H](CCCNC(=N)N)NC(=O)[C@H](CCCNC(=N)N)NC(=O)[C@H](Cc2c[nH]c3ccccc23)NC(=O)[C@H](Cc2c[nH]c3ccccc23)NC1=O` [HILR-D-02] (cyclo(PEGPEPVWWRRWWRRWW)), the pIC50 in the assay on NCI-H460 cells [3] is 4.42.

Take “Cyc-[GGGGGGPRGPRPGGGGGG] [SEQ ID NO: 7] (cyclic; cyclic peptide; (1)..(18) cyclic peptide)”: the “bio-activity … (active / inactive)” value with human cancer cell lines was “SEQ ID NO: 7: Cyc-[GGGGGGPRGPRPGGGGGG]INACTIVE”.

Take “-Pro-Glu-Gly-Pro-Glu-Pro- (PEGPEP; not fully specified; printed as -Pro-Glu-Gly-Pro-Glu-Pro-) [anionic hexapeptide, comparative peptide]”: the “activity of anionic hexapeptide” value with human cancer cell lines (linear hexapeptide, earlier study) is “inactive”.

Turning to “cyclo-[Pro-Hca-Gly-Pro-Hca-Pro-Val-Trp-Trp-Gpa-Gpa-Trp-Trp-Gpa-Gpa-Trp-Trp] (cyclo(P[Abu(4-SO3H)]GP[Abu(4-SO3H)]PVWW[Phe(4-guanidino)][Phe(4-guanidino)]WW[Phe(4-guanidino)][Phe(4-guanidino)]WW); SMILES CC(C)[C@@H]1NC(=O)[C@@H]2CCCN2C(=O)[C@H](CCS(=O)(=O)O)NC(=O)[C@@H]2CCCN2C(=O)CNC(=O)[C@H](CCS(=O)(=O)O)NC(=O)[C@@H]2CCCN2C(=O)[C@H](Cc2c[nH]c3ccccc23)NC(=O)[C@H](Cc2c[nH]c3ccccc23)NC(=O)[C@H](Cc2ccc(NC(=N)N)cc2)NC(=O)[C@H](Cc2ccc(NC(=N)N)cc2)NC(=O)[C@H](Cc2c[nH]c3ccccc23)NC(=O)[C@H](Cc2c[nH]c3ccccc23)NC(=O)[C@H](Cc2ccc(NC(=N)N)cc2)NC(=O)[C@H](Cc2ccc(NC(=N)N)cc2)NC(=O)[C@H](Cc2c[nH]c3ccccc23)NC(=O)[C@H](Cc2c[nH]c3ccccc23)NC1=O) [HILR-D-07]”, the cell morphology result in assay [1] is “Ring-shaped morphology”. In assay [2], the “cell killing ability with 2-DOG” value was “enhanced by co-administration with 2-DOG”.

With `CC(C)C[C@@H]1NC(=O)[C@H](C)NC(=O)[C@H](C(C)C)NC(=O)[C@@H]2CCCN2C(=O)[C@H](CCCNC(=N)N)NC(=O)[C@@H]2CCCN2C(=O)CNC(=O)[C@H](CCCNC(=N)N)NC(=O)[C@@H]2CCCN2C(=O)[C@H](CC(C)C)NC(=O)[C@H](C)NC(=O)[C@H](CC(C)C)NC(=O)[C@H](CCCCN)NC(=O)[C@H](CC(C)C)NC(=O)[C@H](C)NC(=O)[C@H](CC(C)C)NC(=O)[C@H](CCCCN)NC1=O` [HILR-001] (cyclo(PRGPRPVALKLALKLAL)), the “killing NCI-H460 cells (active / inactive)” value in assay [5] is on record as “ACTIVE”. The “selective killing” value in the assay with human cancer cell lines is “selectively killed a wide range of human cancer cell lines”. Also, the “metabolic activity (alamarBlue)” value in the assay with NCI-H460 cells [6] is given as “dose dependent decrease”. In addition, in the assay with NCI-H460 cells [3], the pIC50 is 4.01.

In the case of “Cyc-[PRGPRPVKLALKLALKFP] (cyclic; cyclic peptide; (1)..(18) cyclic peptide) [THR53]”, the “killing NCI-H460 cells (active / inactive)” value in assay [5] is on record as “ACTIVE”. Moreover, the “selective killing” value in the assay with human cancer cell lines is on record as “selectively killed a wide range of human cancer cell lines”.

In the assay with NCI-H460 cells [3], `CC(C)[C@@H]1NC(=O)[C@@H]2CCCN2C(=O)[C@H](CCS(=O)(=O)O)NC(=O)[C@@H]2CCCN2C(=O)CNC(=O)[C@H](CCS(=O)(=O)O)NC(=O)[C@@H]2CCCN2C(=O)[C@H](Cc2c[nH]c3ccccc23)NC(=O)[C@H](Cc2c[nH]c3ccccc23)NC(=O)[C@H](CCCNC(=N)N)NC(=O)[C@H](CCCNC(=N)N)NC(=O)[C@H](Cc2c[nH]c3ccccc23)NC(=O)[C@H](Cc2c[nH]c3ccccc23)NC(=O)[C@H](CCCNC(=N)N)NC(=O)[C@H](CCCNC(=N)N)NC(=O)[C@H](Cc2c[nH]c3ccccc23)NC(=O)[C@H](Cc2c[nH]c3ccccc23)NC1=O` [HILR-D-06] (cyclo(P[Abu(4-SO3H)]GP[Abu(4-SO3H)]PVWWRRWWRRWW)) showed a pIC50 of 4.60.

“Cyc-[GGGGGGPRGPRPGGGGGG] [SEQ ID NO: 8] (cyclic; cyclic peptide; (1)..(18) cyclic peptide)”: the “bio-activity … (active / inactive)” value in the assay with human cancer cell lines is “SEQ ID NO: 8: Cyc-[GGGGGGPRGPRPGGGGGG]INACTIVE”.

In the case of “Cyc-[PRGPRPVKLALKLALKLAL] (cyclic; cyclic peptide; (1)..(19) cyclic peptide) [THR52]”, in assay [5], the “killing NCI-H460 cells (active / inactive)” value was “INACTIVE”.

The record behind these values is patent publication US20190046600A1, “COMPOSITIONS AND USES THEREOF” (priority 2016, published 2019).
